Columns and labels:
Cbl-b = Cbl-b (Homo sapiens (Human), UniProt Q13191); test: Cbl-b LCK Ub TR-FRET assay (Cbl-b Lck HTRF); format: biochemical; details: for IC50: Cbl-b LCK Ub TR-FRET; for (fold-selectivity) Cbl-b and C-Cbl Selectivity / fold-selectivity (Cbl-b over C-cbl): ratio C-cbl Lck HTRF IC50 / Cbl-b Lck HTRF IC50
How it was run: (§1)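 Detection reagents added, brief spin, 20 min RT. IC50 fit normalized to no-LCK (low) and DMSO (high) controls.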

c-Cbl = c-Cbl (Homo sapiens (Human), UniProt P22681); test: C-Cbl LCK Ub TR-FRET assay (C-cbl Lck HTRF); format: biochemical
How it was run: as §1

[1] = molecular target: Human Cbl-b (residues 40-426) (Homo sapiens (Human), UniProt Q13191); test: Cbl-b SPR assay; format: binding; details: for Fold of selectivity: C-cbl SPR Kd vs Cbl-b SPR Kd; for Kd: SPR, 20° C.
How it was run: (§2)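 Protein captured at 1300-1500 RU; compounds run as 6-point 2-fold series in multi-cycle kinetics (60 s contact, 40 μl/min, 120-1200 s dissociation), fitted 1:1. For slow binders, kd came from chaser-compound occupancy over time, fixed in a single-cycle fit (5 concentrations, top 500 nM).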

c-Cbl (residues 47-435) = c-Cbl (residues 47-435) (Homo sapiens (Human), UniProt P22681); test: c-Cbl SPR assay; format: binding; details: 20° C.
How it was run: as §2

c-Cbl, sequence (P22681 47-435): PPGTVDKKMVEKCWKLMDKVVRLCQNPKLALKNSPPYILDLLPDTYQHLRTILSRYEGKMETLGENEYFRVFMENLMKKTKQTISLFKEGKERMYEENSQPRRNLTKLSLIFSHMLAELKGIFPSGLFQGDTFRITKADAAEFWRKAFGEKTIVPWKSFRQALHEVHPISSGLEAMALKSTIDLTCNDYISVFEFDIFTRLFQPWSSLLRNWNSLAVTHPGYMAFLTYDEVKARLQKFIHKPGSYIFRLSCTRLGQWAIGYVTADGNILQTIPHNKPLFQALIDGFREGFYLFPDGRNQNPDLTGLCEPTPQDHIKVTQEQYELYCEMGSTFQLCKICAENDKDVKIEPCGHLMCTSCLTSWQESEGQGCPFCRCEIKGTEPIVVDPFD
c-Cbl (residues 47-435), sequence (P22681 47-435): as above
Human Cbl-b (residues 40-426), sequence (Q13191 40-426): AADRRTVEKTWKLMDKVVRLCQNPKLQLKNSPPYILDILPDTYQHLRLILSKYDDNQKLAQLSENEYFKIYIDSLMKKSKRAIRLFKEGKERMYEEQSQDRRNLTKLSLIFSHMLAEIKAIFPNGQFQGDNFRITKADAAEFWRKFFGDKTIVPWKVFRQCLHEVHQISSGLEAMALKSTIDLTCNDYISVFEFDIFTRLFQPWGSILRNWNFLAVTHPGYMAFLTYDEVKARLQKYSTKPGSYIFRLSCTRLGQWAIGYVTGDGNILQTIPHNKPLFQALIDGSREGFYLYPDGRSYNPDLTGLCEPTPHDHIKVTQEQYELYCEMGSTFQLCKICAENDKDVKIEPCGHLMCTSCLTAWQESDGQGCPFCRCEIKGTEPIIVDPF
Cbl-b, sequence (Q13191 40-426): as above

| Compound | IC50 (Cbl-b; Example 121) [nM] | (fold-selectivity) Cbl-b and C-Cbl Selectivity (Cbl-b) [x] | IC50 (c-Cbl) [nM] | Fold of selectivity [1] [×] | Kd [1] [nM] | Kd (c-Cbl (residues 47-435)) [nM] | IC50 (Cbl-b) [nM] | fold-selectivity (Cbl-b over C-cbl) (Cbl-b) |
| --- | --- | --- | --- | --- | --- | --- | --- | --- |
| Cn1cnnc1[C@@H](c1cccc(N2Cc3c(cc(CNC4(C)CC4)cc3C(F)(F)F)C2=O)c1)C1COC1 (single isomer, unassigned) [Compound 466] | 6.2 | 1.4 | 8.6 | 3.6 | 2.5 | 9.1 |  |  |
| Cn1cnnc1[C@@H](c1cccc(N2Cc3c(cc(CNC4(C)CCC4)cc3C(F)F)C2=O)c1)C1COC1 (single isomer, unassigned) [Compound 303] |  |  | 26 | 8.2 | 3.3 | 28 | 11 | 2.3x |
| Cn1cnnc1[C@H](c1cccc(N2Cc3c(cc([C@H](NC4(C)CCC4)C4CC4)cc3C(F)(F)F)C2=O)c1)C1COC1 (single isomer, unassigned) [Compound 456] | 360 | 6.5 | 2400 | 18 | 230 | 4100 |  |  |
| Cn1cnnc1C1(c2cccc(N3Cc4c(cc([C@H](O)CO)cc4C(F)(F)F)C3=O)c2)CCC1 (single isomer, unassigned) [Compound 302] |  |  | 880 | 4.0 | 410 | 1600 | 410 | 2.1x |
| Cn1cnnc1[C@@H](c1cccc(N2Cc3c(cc(CNC4(C)CCC4)cc3C(F)(F)F)C2=O)c1)C1CC(=O)C1 (single isomer, unassigned) [Compound 114] |  |  | 770 | 2.1 | 290 | 610 | 360 | 2.1 x |
| CCNc1cc(N2Cc3c(cc(CNC4(C)CCC4)cc3C(F)(F)F)C2=O)cc([C@]2(c3nncn3C)C[C@H](OC)C2)c1 [Compound 210, 2-(3-(ethylamino)-5-((1r,3r)-3-methoxy-1-(4-methyl-4H-1,2,4-triazol-3-yl)cyclobutyl)phenyl)-6-(((1-methylcyclobutyl)amino)methyl)-4-(trifluoromethyl)isoindolin-1-one] |  |  | 12 | 4.7 | 1.5 | 6.7 | 9 | 1.3x |
| CO[C@H]1C[C@@](c2cc(OC3COC3)cc(N3Cc4c(cc(CNC5(C)CCC5)cc4C(F)(F)F)C3=O)c2)(c2nncn2C)C1 [Compound 241, 2-(3-((1s,3s)-3-methoxy-1-(4-methyl-4H-1,2,4-triazol-3-yl)cyclobutyl)-5-(oxetan-3-yloxy)phenyl)-6-(((1-methylcyclobutyl)amino)methyl)-4-(trifluoromethyl)isoindolin-1-one] |  |  | 530 | 8.6 | 34 | 270 | 130 | 4.0x |
| Cn1cnnc1[C@]1(c2cccc(N3Cc4c(cc(CNC5(C)CCC5)cc4C(F)(F)F)C3=O)c2)C[C@](C)(F)C1 [Compound 30, 2-(3-((1s,3s)-3-fluoro-3-methyl-1-(4-methyl-4H-1,2,4-triazol-3-yl)cyclobutyl)phenyl)-6-(((1-methylcyclobutyl)amino)methyl)-4-(trifluoromethyl)isoindolin-1-one] |  |  | 27 | 3.8 | 2.6 | 9.8 | 17 | (1.6x) |
| CCOc1cc(N2Cc3c(cc(CNC4(C)CCC4)cc3C(F)(F)F)C2=O)cc([C@]2(c3nncn3C)C[C@@H](C)C2)c1 [Compound 181, 2-(3-ethoxy-5-((1s,3s)-3-methyl-1-(4-methyl-4H-1,2,4-triazol-3-yl)cyclobutyl)phenyl)-6-(((1-methylcyclobutyl)amino)methyl)-4-(trifluoromethyl)isoindolin-1-one] |  |  | 8.3 | 2.0 | 0.37 | 0.74 | 9.8 | 0.85x |
| Cn1cnnc1[C@H](c1cccc(N2Cc3c(cc(CNC4(C)CCC4)cc3C(F)(F)F)C2=O)c1)C1CC(OC(F)F)C1 (single isomer, unassigned) [Compound 389] |  |  | 8.9 | 4.4 | 2.9 | 13 | 5.1 | 1.7x |
| CO[C@H]1C[C@@](c2cc(OC3CCCC3)cc(N3Cc4c(cc(CNC5(C)CCC5)cc4C(F)(F)F)C3=O)c2)(c2nncn2C)C1 [Compound 208, 2-(3-(cyclopentyloxy)-5-((1s,3s)-3-methoxy-1-(4-methyl-4H-1,2,4-triazol-3-yl)cyclobutyl)phenyl)-6-(((1-methylcyclobutyl)amino)methyl)-4-(trifluoromethyl)isoindolin-1-one] |  |  | 2200 | 6.0 | 250 | 1500 | 450 | 4.8x |
| C[C@H](c1cccc(N2Cc3c(cc(CNC4(C)CCC4)cc3C(F)(F)F)C2=O)c1)c1nncn1C (single isomer, unassigned) [Compound 170] |  |  | 12 | 2.8 | 4.9 | 15 | 12 | 1.0x |
| Cn1cnnc1C(c1cccc(N2Cc3c(cc(CNC4(C)CCC4)cc3C(F)(F)F)C2=O)c1)[C@H]1C[C@@H](CC#N)C1 (single isomer, unassigned) [Compound 365] |  |  | 5.9 | 6 | 0.85 | 7.2 | 4.8 | 1.2x |
| CS[C@H]1C[C@](c2cccc(N3Cc4c(cc(CNC5(C)CCC5)cc4C(F)(F)F)C3=O)c2)(c2nncn2C)C1 [Compound 323, 2-(3-((1r,3r)-1-(4-methyl-4H-1,2,4-triazol-3-yl)-3-(methylthio)cyclobutyl)phenyl)-6-(((1-methylcyclobutyl)amino)methyl)-4-(trifluoromethyl)isoindolin-1-one] |  |  | 7.1 | 12 | 0.47 | 5.2 | 5 | 1.4x |
| C[C@@H](CC#N)Nc1cc(C2(c3nncn3C)CC3(COC3)C2)cc(N2Cc3c(cc(CNC4(C)CCC4)cc3C(F)(F)F)C2=O)n1 [Compound 194, (S)-3-((4-(6-(4-methyl-4H-1,2,4-triazol-3-yl)-2-oxaspiro[3.3]heptan-6-yl)-6-(6-(((1-methylcyclobutyl)amino)methyl)-1-oxo-4-(trifluoromethyl)isoindolin-2-yl)pyridin-2-yl)amino)butanenitrile] |  |  | 34 | 8.3 | 1.9 | 16 | 13 | 2.5x |
| Cn1cnnc1C1(c2cccc(N3Cc4c(cc([C@@H](O)CO)cc4C(F)(F)F)C3=O)c2)CCC1 (single isomer, unassigned) [Compound 301] |  |  | 590 | 2.8 | 560 | 1400 | 300 | 2.0x |

Reference: patent publication US12187709B2 (Genentech, Inc., priority 2021, dated 2025)
